For series [1], the system named is Human MRC-5 cell line derived from normal lung tissue. Description: Cytotoxicity test, MTS cell growth inhibition assay. Conditions: MRC-5 cells, 72 h incubation, 8 concentrations, FIG. 1a. Type of series: cell-based. The protocol:
(§1) Human MRC-5 cell line derived from normal lung tissue and human HCT-116 colorectal carcinoma were obtained from the American Type Culture Collection (ATCC, Rockville, Md.). Primary Human Umbilical Vein Endothelial Cells (HUVEC) isolated from the vein of the umbilical cord were obtained from Promocell (Germany). Cell lines were cultured according to the supplier's instructions. Human HCT-116 cells were grown in Gibco McCoy's 5A supplemented with 10% fetal calf serum (FCS) and 1% glutamine. Human MRC-5 cells were grown in DMEM supplemented with 10% fetal calf serum (FCS) and 1% glutamine. HUVECs were grown in Endothelial Cell Growth Medium 2 which is low-serum (2% V/V) media optimized for the cultivation of endothelial cells from large blood vessels.
(§2) Cells were counted using a Vi-cell XR (Beckman Coulter) and their viability assessed by 0.25% trypan blue dye exclusion. They were tested for the presence of mycoplasma before experiments with the Mycoplasma PCR Detection Kit (Applied Biological Materials Inc., Canada) in accordance with the manufacturer instructions and only mycoplasma-free cells were used for further investigations.
(§3) Cell lines were maintained at 37° C. in a humidified atmosphere containing 5% CO2. Cell growth inhibition was determined by an MTS assay according to the manufacturer's instructions (Promega, Madison, Wis., USA). […] After 24 h of culture, the cells were treated with the compound CR591 of example 1 at 8 different final concentrations. Each concentration was obtained from serial dilutions in culture medium starting from the stock solution. Control cells were treated with the vehicle. Experiments were performed in triplicate.
(§4) After 72 h of incubation, 20 μL of CellTiter 96® AQueous One Solution Reagent was added for 2 h before recording absorbance 490 nm with a spectrophotometric plate reader. The dose-response curves were plotted with Graph Prism software and the IC50 values were calculated using the Graph Prism software from polynomial curves (four or five-parameter logistic equations).

The test system of series [2] is Primary Human Umbilical Vein Endothelial Cells (HUVEC). Described as above. The series is classed as cell-based. The conditions noted are these: 72 h incubation, 8 concentrations, FIG. 1c. The protocol: as §1, §2, §3, §4
In series [3] the test system is human HCT-116 colorectal carcinoma. The description is as above. Type of series: cell-based. Conditions: HCT-116 cells, 72 h incubation, 8 concentrations, FIG. 1b. The protocol:
as §1, §2, §3, §4

The test system of series [4] is OPC (precursor cells of oligodendrocytes) in primary cocultures of central neurons and oligodendrocytes. Description: In vitro MS (myelination) model, OPC number (A2B5 positive cells) at day 12. Type of series: cell-based, rat. Conditions: 12 days treatment. The procedure:
(§5) A reproducible in vitro myelination model based on primary cocultures of central neurons and oligodendrocytes culturing in 96-well plate is used and adapted to high throughput screening.
(§6) Neurons/oligodendrocytes were cultured as previously described by Charles et al., 2000. PNAS 97 7585-7590.
Briefly, pregnant Wistar female rats of 17 days gestation were killed by cervical dislocation (Janvier Labs, France) and the foetuses removed from the uterus. The forebrains were removed and placed in ice-cold medium of Leibovitz (L15; Pan Biotech, Germany) containing 2% of Penicillin-Streptomycin (Batch 1451013, PanBiotech) and 1% of bovine serum albumin (BSA) (Batch K180713, Pan Biotech). Cortexes were dissociated by trypsinisation for 20 min at 37° C., with Trypsin EDTA 1X (Batch 7310713, PanBiotech). The reaction was stopped by the addition of Dulbecco's modified Eagle's medium (DMEM) (Batch 9710913, PanBiotech) containing DNAase I grade II at 0.1 mg/mL (Batch H131108, PanBiotech) and 10% of foetal calf serum (Batch 41Q7218K, Invitrogen, France). […]
(§7) The immunolabeled cultures were automatically examined with ImageXpress (Molecular Devices) equipped with a LED at ×20 magnification. […] Number of A2B5 positive cells and number of MAG positive cells were automatically analyzed by using Custom module editor (Molecular Devices). […] All values were expressed as mean+/−SEM (s.e.mean) of the 6 wells. […]

Series [5] relates to MAG positive cells (OL) in primary cocultures of central neurons and oligodendrocytes. Briefly: In vitro MS (myelination) model, MAG evaluation at day 18. Type of series: cell-based, rat. The conditions noted are these: 18 days of treatment, bell shape curve. The procedure:
as §5, §6
Briefly, pregnant Wistar female rats of 17 days gestation were killed by cervical dislocation (Janvier Labs, France) and the foetuses removed from the uterus. The forebrains were removed and placed in ice-cold medium of Leibovitz (L15; Pan Biotech, Germany) containing 2% of Penicillin-Streptomycin (Batch 1451013, PanBiotech) and 1% of bovine serum albumin (BSA) (Batch K180713, Pan Biotech). Cortexes were dissociated by trypsinisation for 20 min at 37° C., with Trypsin EDTA 1X (Batch 7310713, PanBiotech). The reaction was stopped by the addition of Dulbecco's modified Eagle's medium (DMEM) (Batch 9710913, PanBiotech) containing DNAase I grade II at 0.1 mg/mL (Batch H131108, PanBiotech) and 10% of foetal calf serum (Batch 41Q7218K, Invitrogen, France). Cells were then mechanically dissociated by 3 passages through a 10 mL pipette. Cells were centrifuged at 180×g for 10 min at 4° C. temperature on a layer of BSA (3.5%) in L15 medium. The supernatant was discarded and cells of the pellet were re-suspended in DMEM containing 10% of FCS. […] The supernatant was discarded and cells of pellet were re-suspended in a culture medium consisting of Neurobasal (Batch 1625353, Invitrogen) supplemented with 2% of B27 (Batch 1618508, Invitrogen), 2 mM of L-glutamine (Batch 6620314, PanBiotech), 2% of PS solution, 1% of foetal calf serum (FCS) and 10 ng/mL of platelet-derived growth factor (PDGF-AA) (Batch H131205, PanBiotech). […]
as §7

Series [6] has as its system primary rat motor neurons injured with glutamate. Description: Primary motor neuron culture survival after glutamate injury (in vitro ALS model). Type of series: cell-based. The procedure: The aim of this study was to study the effect of CR591 on primary motor neuron culture from rat spinal cord (SC) injured by glutamate exposure (a well validated in vitro ALS model and model of motor neuron diseases).
Rat SC motor neurons were cultured as described by Martinou et al., Neuron. 1992 April; 8(4):737-44 and Wang et al., Hum Mol Genet. 2013 Dec. 1; 22(23):4706-19. Briefly, pregnant female rats (Wistar, Janvier labs) of 14 days gestation were killed by cervical dislocation. […] Cells were then centrifuged at 180 g for 10 min at +4° C. on a layer of BSA (3.5%) in L15 medium. […] The medium was changed every day.
The following conditions were assessed: • Control • + glutamate (5 μM 20 mn then 48 h) • + glutamate (5 μM 20 mn then 48 h)+CR591 1 pmol/L • + glutamate (5 μM 20 mn then 48 h)+CR591 10 pmol/L • + glutamate (5 μM 20 mn then 48 h)+CR591 100 pmol/L • + glutamate (5 μM 20 mn then 48 h)+CR591 1 nmol/L • + glutamate (5 μM 20 mn then 48 h)+CR591 10 nmol/L • + glutamate (5 μM 20 mn then 48 h)+CR591 100 nmol/L • + glutamate (5 μM 20 mn then 48 h)+CR591 1 μmol/L • + glutamate (5 μM 20 mn then 48 h)+CR591 10 μmol/L […]
For each condition, 6 wells were assessed, 30 pictures per well were taken using ImageXpress (Molecular Devices) with 20× magnification, to assess motor neuron survival (MAP-2). […]

Turning to `CC1=C(CO)C(=O)O[C@@H]([C@@H](C)[C@H]2CCC3C4C[C@H](SC[C@H](N)C(=O)O)[C@]5(O)[C@@H](O)C=CC(=O)[C@]5(C)C4CC[C@@]32C)C1` (stereo partly shown) [CR591], the “toxicity (cell growth inhibition)” value in series [1], in series [2] and in series [3] was “does not show any toxicity” throughout. In series [4] (1 pmol/L to 10 μmol/L, FIG. 2), the “OPC number (A2B5 positive cells)” value is “did not show any significant increase”. Besides, the “total number of OPCs at the highest doses” value in series [4] (highest doses, inhibition of proliferation or toxic effect) is given as “decrease of the total number of OPCs was observed”. The “concentration of maximal effect on MAG positive cells / myelination” value in series [5] is on record as 1 nM. Besides, the “number of MAG positive cells” value in series [5] (FIG. 3a) was “able to increase the number of MAG positive cells”. Also, the “myelination of neurons by OL (area of MAG expression)” value in series [5] (FIG. 3b) was “significantly improved the myelination of neurons by OL”. Further, the “protective effect of motor neuron (survival, MAP-2)” value in series [6] (added 1 h before glutamate (5 μM 20 min, then 48 h), between 1 nM and 10 nM, FIG. 4) was “moderate and significant protective effect”.

In series [6] (glutamate 5 μM for 20 min, read 48 h later, versus control = 100%), `N[C@@H](CCC(=O)O)C(=O)O` [Glutamate, glutamate, reference compound] returned a motor neuron death of over 30%.

For the origin of these results see patent US20210087222A1, “COMPOUNDS FOR TREATING NEURODEGENERATIVE DISORDERS” (ETHNODYNE, priority 2017, published 2021).
